Laboratory results as given in ChEMBL document CHEMBL3526017, “Predicting the drug interaction potential of AMG 853, a dual antagonist of the D-prostanoid and chemoattractant receptor-homologous molecule expressed on T helper 2 cells receptors” (Drug Metab Dispos, 2012).

Columns and labels:
[1] = target: UDP-glucuronosyltransferase 1A4 (Homo sapiens, UniProt P22310); assay: (§1) Drug metabolism assessed as human recombinant UGT1A4-mediated (2S,3S,4S,5R,6S)-6-(2-(4-(4-(tert-butylcarbamoyl)-2-(2-chloro-4-cyclopropylphenylsulfonamido)phenoxy)-5-chloro-2-fluorophenyl)acetoxy)-3,4,5-trihydroxytetrahydro-2H-pyran-2-carboxylic acid formation at 10 uM after 30 mins by LC-MS/MS analysis; format: ADME; conditions: recombinant enzyme, 0.5 h
Sequence of UDP-glucuronosyltransferase 1A4 (P22310 whole entry): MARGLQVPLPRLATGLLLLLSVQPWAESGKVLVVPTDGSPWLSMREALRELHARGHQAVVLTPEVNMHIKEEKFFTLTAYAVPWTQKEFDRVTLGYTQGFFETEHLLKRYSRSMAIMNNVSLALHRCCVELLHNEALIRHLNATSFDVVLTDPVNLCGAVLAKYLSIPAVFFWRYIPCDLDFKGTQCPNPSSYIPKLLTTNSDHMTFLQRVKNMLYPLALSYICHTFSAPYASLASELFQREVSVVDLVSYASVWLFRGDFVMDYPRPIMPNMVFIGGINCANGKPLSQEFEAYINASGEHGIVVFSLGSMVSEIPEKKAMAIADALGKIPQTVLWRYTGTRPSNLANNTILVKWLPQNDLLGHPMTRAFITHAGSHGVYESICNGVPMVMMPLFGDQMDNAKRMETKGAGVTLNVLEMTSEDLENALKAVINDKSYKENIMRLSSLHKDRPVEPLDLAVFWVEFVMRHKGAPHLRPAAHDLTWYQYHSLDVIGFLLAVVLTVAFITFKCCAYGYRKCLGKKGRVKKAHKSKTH

CYP3A4 = CYP3A4 (Homo sapiens, UniProt P08684); assay: Induction of CYP3A4 in human hepatocytes using midazolam as substrate at 0.3 to 30 uM treated every 24 hrs for 2 days measured on day 5 by LC-MS/MS analysis relative to control
Sequence of CYP3A4 (P08684 whole entry): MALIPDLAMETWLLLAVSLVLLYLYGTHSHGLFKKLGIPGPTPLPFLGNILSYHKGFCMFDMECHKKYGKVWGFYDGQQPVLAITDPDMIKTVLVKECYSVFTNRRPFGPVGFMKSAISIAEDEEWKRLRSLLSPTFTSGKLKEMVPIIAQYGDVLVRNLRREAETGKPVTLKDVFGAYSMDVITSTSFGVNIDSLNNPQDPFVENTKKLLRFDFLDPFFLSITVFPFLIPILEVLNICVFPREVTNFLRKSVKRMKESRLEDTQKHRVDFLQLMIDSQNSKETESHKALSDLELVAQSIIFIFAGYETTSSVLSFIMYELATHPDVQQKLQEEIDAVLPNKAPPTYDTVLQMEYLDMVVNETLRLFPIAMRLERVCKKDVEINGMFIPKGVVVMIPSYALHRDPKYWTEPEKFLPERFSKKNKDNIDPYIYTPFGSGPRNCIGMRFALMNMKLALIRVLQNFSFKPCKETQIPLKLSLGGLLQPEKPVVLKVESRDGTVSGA

CYP1A2 = assay: Upregulation of CYP1A2 mRNA expression in human hepatocytes at 0.3 to 30 uM treated every 24 hrs for 2 days measured on day 5 relative to control; format: ADME, cell-based, Hepatocyte; conditions: read-out: FC
[2] = Cmax in healthy human at 50 mg, po; format: ADME, organism-based; set-up: dose 50 mg, route oral; conditions: in vivo
[3] = AUC (0 to infinity) in healthy human at 50 mg, po in presence of ketoconazole; format: ADME, organism-based; set-up: dose 50 mg, route oral, time infinity; conditions: plasma
[4] = Drug metabolism in human liver microsomes assessed as CYP3A5*1/*1-mediated (2S,3S,4S,5R,6S)-6-(2-(4-(4-(tert-butylcarbamoyl)-2-(2-chloro-4-cyclopropylphenylsulfonamido)phenoxy)-5-chloro-2-fluorophenyl)acetoxy)-3,4,5-trihydroxytetrahydro-2H-pyran-2-carboxylic acid formation after 15 mins by LC-MS/MS analysis in presence of UDPGA; format: ADME; conditions: 0.25 h
Cytochrome P450 3A5 [5] = target: T1, Cytochrome P450 3A5 (Homo sapiens, UniProt P20815); assay: Drug metabolism assessed as recombinant CYP3A5 (unknown origin)-mediated 2-(5-chloro-4-(2-(2-chloro-4-cyclopropylphenylsulfonamido)-4-(1-hydroxy-2-methylpropan-2-ylcarbamoyl)phenoxy)-2-fluorophenyl)acetic acid formation at 10 uM after 30 mins by LC-MS/MS analysis; format: ADME; conditions: recombinant enzyme, 0.5 h
T1 sequence (P20815 whole entry): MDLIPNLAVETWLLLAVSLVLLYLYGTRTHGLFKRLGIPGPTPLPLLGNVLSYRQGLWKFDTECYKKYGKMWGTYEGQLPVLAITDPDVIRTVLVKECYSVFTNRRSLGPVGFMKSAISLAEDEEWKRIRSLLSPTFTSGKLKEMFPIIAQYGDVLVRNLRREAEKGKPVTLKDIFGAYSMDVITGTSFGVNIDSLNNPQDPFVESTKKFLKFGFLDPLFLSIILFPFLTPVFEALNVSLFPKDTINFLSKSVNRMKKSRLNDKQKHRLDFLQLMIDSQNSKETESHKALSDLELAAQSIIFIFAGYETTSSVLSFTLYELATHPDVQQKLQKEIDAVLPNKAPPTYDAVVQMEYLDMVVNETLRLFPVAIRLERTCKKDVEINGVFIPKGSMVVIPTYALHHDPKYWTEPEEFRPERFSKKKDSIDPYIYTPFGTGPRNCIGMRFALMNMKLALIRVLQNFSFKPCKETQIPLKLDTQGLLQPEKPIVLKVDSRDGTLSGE

Cytochrome P450 2C8 = target: T2, Cytochrome P450 2C8 (Homo sapiens, UniProt P10632); assay: Drug metabolism assessed as recombinant CYP2C8 (unknown origin)-mediated 2-(4-(4-(tert-butylcarbamoyl)-2-(2-chloro-4-(1-hydroxycyclopropyl)phenylsulfonamido)phenoxy)-5-chloro-2-fluorophenyl)acetic acid formation at 10 uM after 30 mins by LC-MS/MS analysis; format: ADME; conditions: recombinant enzyme, 0.5 h
T2 sequence (P10632 whole entry): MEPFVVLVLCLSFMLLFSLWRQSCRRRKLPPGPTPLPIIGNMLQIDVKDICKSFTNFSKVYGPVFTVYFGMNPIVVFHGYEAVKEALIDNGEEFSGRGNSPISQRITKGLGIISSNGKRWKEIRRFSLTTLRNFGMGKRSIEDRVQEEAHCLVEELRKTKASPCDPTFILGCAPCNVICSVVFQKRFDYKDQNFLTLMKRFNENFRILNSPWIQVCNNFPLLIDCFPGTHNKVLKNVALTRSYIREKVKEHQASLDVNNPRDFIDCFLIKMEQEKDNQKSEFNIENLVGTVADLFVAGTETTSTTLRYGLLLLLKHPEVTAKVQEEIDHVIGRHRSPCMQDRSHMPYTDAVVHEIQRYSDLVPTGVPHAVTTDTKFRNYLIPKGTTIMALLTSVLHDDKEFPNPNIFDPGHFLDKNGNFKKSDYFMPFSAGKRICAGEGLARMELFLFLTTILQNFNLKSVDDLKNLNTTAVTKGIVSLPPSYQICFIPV

Cytochrome P450 3A5 [6] = target: T1, Cytochrome P450 3A5; assay: Drug metabolism assessed as recombinant CYP3A5 (unknown origin)-mediated 2-(4-(4-(tert-butylcarbamoyl)-2-(2-chloro-4-(1-hydroxycyclopropyl)phenylsulfonamido)phenoxy)-5-chloro-2-fluorophenyl)acetic acid formation at 10 uM after 30 mins by LC-MS/MS analysis; format: ADME; conditions: recombinant enzyme, 0.5 h
Liver microsome = assay: Drug metabolism in human liver microsomes assessed as 2-(5-chloro-4-(2-(2-chloro-4-cyclopropylphenylsulfonamido)-4-(1-hydroxy-2-methylpropan-2-ylcarbamoyl)phenoxy)-2-fluorophenyl)acetic acid formation at 2 uM after 60 mins by LC-MS/MS analysis in presence of montelukast; format: ADME; conditions: 1 h
[7] = target: T3, UDP-glucuronosyltransferase 1A3 (Homo sapiens, UniProt P35503); assay: as §1, with “UGT1A3-mediated” for “UGT1A4-mediated”; format: ADME; conditions: recombinant enzyme, 0.5 h
T3 sequence (P35503 whole entry): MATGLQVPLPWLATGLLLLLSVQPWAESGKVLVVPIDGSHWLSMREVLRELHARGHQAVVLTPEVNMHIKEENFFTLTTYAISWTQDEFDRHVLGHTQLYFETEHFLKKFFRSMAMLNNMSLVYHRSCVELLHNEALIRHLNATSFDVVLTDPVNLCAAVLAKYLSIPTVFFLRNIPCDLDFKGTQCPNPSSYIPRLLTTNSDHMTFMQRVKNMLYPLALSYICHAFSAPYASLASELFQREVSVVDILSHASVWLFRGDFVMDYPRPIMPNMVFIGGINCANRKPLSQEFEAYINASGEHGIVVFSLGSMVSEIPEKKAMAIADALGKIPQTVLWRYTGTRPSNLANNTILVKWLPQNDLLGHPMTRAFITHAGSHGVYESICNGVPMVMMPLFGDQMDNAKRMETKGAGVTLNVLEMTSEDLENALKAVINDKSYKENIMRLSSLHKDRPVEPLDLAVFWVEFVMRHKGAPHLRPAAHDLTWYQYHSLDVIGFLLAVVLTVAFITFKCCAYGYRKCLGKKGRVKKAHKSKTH

[8] = target: T4, UDP-glucuronosyltransferase 1A1 (Homo sapiens, UniProt P22309); assay: Drug metabolism assessed as human recombinant UGT1A1-mediated compound formation treated with AMG 853 after 45 mins by LC-MS/MS analysis in presence of UDPGA; format: ADME; conditions: recombinant enzyme, 0.75 h
T4 sequence (P22309 whole entry): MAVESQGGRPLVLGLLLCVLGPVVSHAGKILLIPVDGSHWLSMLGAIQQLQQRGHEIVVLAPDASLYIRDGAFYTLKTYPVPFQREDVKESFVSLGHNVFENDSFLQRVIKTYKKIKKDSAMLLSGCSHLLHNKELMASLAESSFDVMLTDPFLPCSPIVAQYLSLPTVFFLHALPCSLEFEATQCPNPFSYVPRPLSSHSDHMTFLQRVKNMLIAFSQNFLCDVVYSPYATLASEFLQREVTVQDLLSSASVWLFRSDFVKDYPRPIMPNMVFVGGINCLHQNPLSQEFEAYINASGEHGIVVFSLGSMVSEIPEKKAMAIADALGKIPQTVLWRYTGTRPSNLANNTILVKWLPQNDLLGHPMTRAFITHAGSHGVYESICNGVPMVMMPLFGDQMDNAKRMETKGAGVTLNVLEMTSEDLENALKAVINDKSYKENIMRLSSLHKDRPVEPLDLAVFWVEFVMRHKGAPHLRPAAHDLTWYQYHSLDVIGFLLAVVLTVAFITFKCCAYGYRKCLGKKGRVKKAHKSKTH

fold induction at 48 h, 30 µM (CYP3A4) | fold induction at 48 h, up to 30 µM (CYP1A2) | Cmax [2] | AUC(0-inf) [3] | Drug metabolism (Cytochrome P450 3A5 [5]) | Drug metabolism (Cytochrome P450 2C8) | Drug metabolism (Cytochrome P450 3A5 [6]) | Drug metabolism (Liver microsome) | S50 [8] | Vmax [8] | SMILES | Drug metabolism [1] | Drug metabolism [4] | Drug metabolism [7]
1.4 | 1.7 | 227 ng/mL | 800 ng·h/mL | metabolite_detected | metabolite_detected | metabolite_detected | metabolite_not_detected | – | – | CC(C)(C)NC(=O)c1ccc(Oc2cc(F)c(CC(=O)O)cc2Cl)c(NS(=O)(=O)c2ccc(C3CC3)cc2Cl)c1 [VIDUPIPRANT] | metabolite_detected | metabolite_detected | metabolite_detected
– | – | – | – | – | – | – | – | 218.4 µM | 3.45 pmol/min/mg | CC(C)(C)NC(=O)c1ccc(Oc2cc(F)c(CC(=O)O[C@@H]3O[C@H](C(=O)O)[C@@H](O)[C@H](O)[C@H]3O)cc2Cl)c(NS(=O)(=O)c2ccc(C3CC3)cc2Cl)c1 | – | – | –
